Experiment [1] concerns the target T1, GPR119 (Homo sapiens, UniProt Q8TDV5).
T1 sequence (Q8TDV5 1-335): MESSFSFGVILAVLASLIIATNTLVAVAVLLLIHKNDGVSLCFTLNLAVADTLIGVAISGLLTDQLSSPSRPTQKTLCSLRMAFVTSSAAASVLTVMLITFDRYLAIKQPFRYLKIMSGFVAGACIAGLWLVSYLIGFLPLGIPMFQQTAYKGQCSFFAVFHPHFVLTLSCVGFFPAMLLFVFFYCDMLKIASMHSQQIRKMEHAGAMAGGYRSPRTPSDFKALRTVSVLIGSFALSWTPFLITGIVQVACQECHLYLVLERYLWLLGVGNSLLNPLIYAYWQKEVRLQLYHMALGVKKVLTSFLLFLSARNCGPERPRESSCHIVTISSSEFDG
In words: LANCE Ultra cAMP assay: stimulation of GPR119-mediated cAMP production in CHO cells stably expressing human GPR119 receptor. It counts as cell-based. As to conditions: for Emax: CHO, read-out: % cAMP Max.

Experiment [2] has as its target T1, GPR119. In words: PathHunter β-arrestin assay (enzyme fragment complementation, β-galactosidase reporter) monitoring activation of GPR119. It counts as cell-based. Also noted: β-galactosidase enzyme fragment for EFC (by own knowledge the ProLink tag, fused to the receptor's C-terminus in PathHunter lines). The note with it: for EC50: Table B-3; for Emax: Table B-3, read-out: % cAMP Max. Here is the method: Certain test compounds were evaluated using the PathHunterR β-arrestin assay, which monitors the activation of GPR119 in a homogenous, non-imaging assay format using the enzyme fragment complementation (EFC) technology (DiscoverX Corporation, Fremont, Calif. U.S.A.; www.discoverx.com) with β-galactosidase as the functional reporter.

[3] abbreviates: Table B-2 entries 15-39, modified protocol, 500 cells/well.

The compound `[O-][S@@+]1COc2cc(-c3ccc(OCC4CCN(c5ncc(Cl)cn5)CC4)c(F)c3)ccc21` [Example B-34, (R)-6-(4-((1-(5-chloropyrimidin-2-yl)piperidin-4-yl)methoxy)-3-fluorophenyl)-2H-benzo[d][1,3]oxathiole-3-oxide] returned a concentration for a half-maximal effect (EC50) in experiment [1] (Table B-2 entries 1-14, protocol as described (800 000 cells/mL, 5 uL/well), CHO-GPR119 cells) of 0.9 nM. In experiment [2], the EC50 came to 35.7 nM and the Emax came to 172%.

For `COc1cnc(N2CCC(COc3ccc(-c4ccc5c(c4)OC[S@@+]5[O-])cc3F)CC2)nc1` [Example B-50, (S)-6-(3-Fluoro-4-((1-(5-methoxypyrimidin-2-yl)piperidin-4-yl)methoxy)phenyl)-2H-benzo[d][1,3]oxathiole 3-oxide], the Emax amounted to 66% in experiment [1] (setting [3]) and 169% in experiment [2]. The EC50 in experiment [1] (setting [3]) turned out to be 3.7 nM; in experiment [2], 16.4 nM.

As for `CCc1ccnc(N2CC[C@H](COc3ccc(-c4ccc5c(c4)OC[S@@+]5[O-])cc3F)C2)n1` [Example B-84, (S)-6-(4-(((S)-1-(4-Ethylpyrimidin-2-yl)pyrrolidine-3-yl)methoxy)-3-fluorophenyl)-2H-benzo[d][1,3]oxathiole 3-oxide], the results for the Emax in experiment [1] (setting [3]) and in experiment [2] were 92% and 117%, respectively. Moreover, the EC50 in experiment [1] (setting [3]) was determined as 31.5 nM; in experiment [2], 567 nM.

In the case of `[O-][S@@+]1COc2cc(-c3ccc(OC[C@H]4CCN(c5ncc(Cl)cn5)C4)c(F)c3)ccc21` [Example B-86, (R)-6-(4-(((S)-1-(5-Chloropyrimidin-2-yl)pyrrolidine-3-yl)methoxy)-3-fluorophenyl)-2H-benzo[d][1,3]oxathiole 3-oxide], in experiment [1] (setting [3]), the Emax was found to be 93% and the EC50 came out at 4.6 nM. In experiment [2], the EC50 stood at 108 nM and the Emax amounted to 133%.

On to `CCc1cnc(N2CC[C@H](COc3ccc(-c4ccc5c(c4)OC[S@@+]5[O-])cc3F)C2)nc1` [Example B-75, (S)-6-(4-(((S)-1-(5-Ethylpyrimidin-2-yl)pyrrolidin-3-yl)methoxy)-3-fluorophenyl)-2H-benzo[d][1,3]oxathiole 3-oxide], for which, in experiment [1] (setting [3]), the Emax is 88% and the midpoint of the response, the EC50, lay at 17.7 nM. For the same compound, in experiment [2], a half-maximal response (EC50) required 60 nM and the Emax amounted to 190%.

For the origin of these results see patent US10906894B2, “Compounds containing benzo[d][1,3]oxathiole, benzo[d][1,3]oxathiole 3-oxide or benzo[d][1,3]oxathiole 3,3-dioxide and methods/uses thereof as agonists of g protein-coupled receptor 119” (PRAMANA PHARMACEUTICALS INC., priority 2016, dated 2021).
